Source: paper PMC5712521, “Dendrogenin A drives LXR to trigger lethal autophagy in cancers” (Nature Communications, 2017)

Assays:
[1] = test system: SKMEL-28 cells; test: Sterol analysis by GC/MS; assay type: cell-based, human; conditions: SKMEL-28, 24 h; 10 µM 22(R)HC, 1 µM GW, 100 nM TO; GC/MS
Description: (§1) Sterols in cell homogenates were extracted with a solvent mixture containing chloroform/methanol 2/1 (v/v) spiked with epicoprostanol as the internal standard. Lipids were partitioned in chloroform after the addition of saline and saponified by methanolic potassium hydroxide (0.5 N, 60 °C, 15 min). The fatty acids released were methylated with BF3-methanol (12%, 60 °C, 15 min) to not interfere with the chromatography of sterols. The sterols were re-extracted in hexane and silylated, as described previously. The trimethylsilylether derivatives of the sterols were separated by gas chromatography (GC) (Hewlett–Packard 6890 series) in a medium polarity capillary column RTX-65, (65% diphenyl 35% dimethyl polysiloxane, length 30 m, diameter 0.32 mm, film thickness 0.25 μm (Restesk, Evry, France)). The mass spectrometer (Agilent 5975 inert XL) in series with the GC was set up for the detection of positive ions. Ions were produced in the electron impact mode at 70 eV. Sterols were identified by the fragmentogram in the scanning mode and quantified by selective monitoring of the specific ions after normalization with the internal standard epicoprostanol and calibration with weighed standards. […]
Quantification of sterols ac cum ulation in SKMEL- 2 8 c ells either expressing LXRβ (shCT L) or with LXRβ (sh3 or sh4LXR β) k nock ed down after 24 h treatm ent with 2.5 µ M DD A or solvent vehicle. Anal yses were perform ed by GC/MS. f Quantification of sterols accumulated in m elanom a cells after 24 h treatm ent with 10 µM 22(R) HC, 1 µ M GW , 100 nM T O or solvent […]
(§2) vehicle. […]

[2] = test system: B16F10 cells; test: RT-qPCR of LXR-responsive genes; assay type: cell-based, mouse; conditions: 8 h, 2.5 µM DDA, 10 µM 22(R)HC, 1 µM GW, 100 nM TO, vs vehicle
Description: Total RNA was extracted from tumor cells or MEFs using an RNA Extraction kit (Qiagen) or Trizol (Invitrogen), respectively, and was quantified with NanoDrop. Complementary DNA (cDNA) synthesis was performed with 1 μg RNA iScript Reverse Transcriptase (Bio-Rad). 25 ng cDNA was amplified using SyBR Supermix (Bio-Rad). RNA expression of the different genes of interest (Supplementary Tables 1, 2) were determined using the ΔΔCT method, where the difference in the threshold cycle (ΔCT) values of the target gene and the housekeeping gene for each sample was normalized to the ΔCT value of the untreated sample.
Supplementary Fig. 4. a R egulat ion of LXR-responsive genes b y D DA and other k nown LXR
ligands in B16F10 and SKMEL- 28 cells transfected with s iRN A targeting LXRβ ( siLXRβ) or
with contro l siRN A scram ble (siSC). Cells were treated for 8 h with either solvent vehicle, 2.5
µM DD A, 10 µM 22(R) hydrox ycholesterol (22(R)HC), 1 µM GW 3965 (GW ) or 100 nM
T O901317 (T O). […]

[3] = test system: B16F10 cells; test: Sterol analysis by GC/MS; assay type: cell-based, mouse; conditions: B16F10, 24 h, 10 µM 22(R)HC, 1 µM GW, 100 nM TO
Description: as §1
Anal yses were perform ed by GC/MS. f Quantification of sterols accumulated in
m elanom a cells after 24 h treatm ent with 10 µM 22(R) HC, 1 µ M GW , 100 nM T O or solvent
as §2

| Compound | Sterol amount/total sterol: 8-DHC [1] | Sterol amount/total sterol: zymostenol [1] | ABCA1 mRNA ([2]; B16F10, siCT) [fold] | ABCG1 mRNA ([2]; B16F10, siCT) [fold] | ABCG5 mRNA ([2]; B16F10, siCT) [fold] | ABCG8 mRNA ([2]; B16F10, siCT) [fold] | LC3A mRNA ([2]; B16F10, siCT) [fold] | LC3B mRNA ([2]; B16F10, siCT) [fold] | LDLR mRNA ([2]; B16F10, siCT) [fold] | NOR1 mRNA ([2]; B16F10, siCT) [fold] | Nur77 mRNA ([2]; B16F10, siCT) [fold] | SCD1 mRNA ([2]; B16F10, siCT) [fold] | SREBP1 mRNA ([2]; B16F10, siCT) [fold] | SULT2b1b mRNA ([2]; B16F10, siCT) [fold] | ABCA1 mRNA ([2]; B16F10, siLXRβ) [fold] | ABCG1 mRNA ([2]; B16F10, siLXRβ) [fold] | ABCG5 mRNA ([2]; B16F10, siLXRβ) [fold] | ABCG8 mRNA ([2]; B16F10, siLXRβ) [fold] | LC3A mRNA ([2]; B16F10, siLXRβ) [fold] | LC3B mRNA ([2]; B16F10, siLXRβ) [fold] | also measured |
| --- | --- | --- | --- | --- | --- | --- | --- | --- | --- | --- | --- | --- | --- | --- | --- | --- | --- | --- | --- | --- | --- |
| CC(C)CC[C@@H](O)[C@@H](C)[C@H]1CC[C@H]2[C@@H]3CC=C4C[C@@H](O)CC[C@]4(C)[C@H]3CC[C@]12C [22(R)HC, 22(R)-hydroxycholesterol] | 0.05± 0.03 | 0.37± 0.07 | 12.5±2.5 | 0.7±0.1 | 4.2±0.2 | 1.6±0.2 | 1.3±0.1 | 1.1±0.2 | 0.1±0.1 | 2.2±0.3 | 1.4±0.1 | 1.1±0.2 | 2.2±0.2 | 1.5±0.3 | 4.2 ±0.9 | 1.1±0.1 | 2.0±0.5 | 1.0±0.1 | 1.0±0.3 | 1.0±0.1 | LDLR mRNA ([2]; B16F10, siLXRβ): 1.1±0.1 fold; NOR1 mRNA ([2]; B16F10, siLXRβ): 0.9±0.2 fold; Nur77 mRNA ([2]; B16F10, siLXRβ): 0.8±0.2 fold; SCD1 mRNA ([2]; B16F10, siLXRβ): 1.2±0.3 fold; SREBP1 mRNA ([2]; B16F10, siLXRβ): 1.2±0.1 fold; SULT2b1b mRNA ([2]; B16F10, siLXRβ): 1.1±0.2 fold; Sterol amount/total sterol: 8-DHC [3]: 0.08± 0.006; Sterol amount/total sterol: zymostenol [3]: 0.24± 0.08 |
| O=S(=O)(c1ccccc1)N(CC(F)(F)F)c1ccc(C(O)(C(F)(F)F)C(F)(F)F)cc1 [TO, TO901317] | 0.04± 0.02 | 0.36± 0.08 | 8.5±1.8 | 1.1±0.3 | 3.6±0.6 | 1.5±0.1 | 1.0±0.3 | 1.3±0.1 | 1.7±0.1 | 1.9±0.2 | 0.9±0.3 | 1.6±0.2 | 3.3±0.1 | 3.2±0.2 | 2.0±0.4 | 1.0±0.1 | 1.0±0.2 | 1.1±0.2 | 1.0±0.2 | 1.2±0.3 | LDLR mRNA ([2]; B16F10, siLXRβ): 1.0±0.2 fold; NOR1 mRNA ([2]; B16F10, siLXRβ): 0.7±0.3 fold; Nur77 mRNA ([2]; B16F10, siLXRβ): 0.6±0.2 fold; SCD1 mRNA ([2]; B16F10, siLXRβ): 0.9±0.1 fold; SREBP1 mRNA ([2]; B16F10, siLXRβ): 0.9±0.2 fold; SULT2b1b mRNA ([2]; B16F10, siLXRβ): 1.2±0.3 fold; Sterol amount/total sterol: 8-DHC [3]: 0.04± 0.005; Sterol amount/total sterol: zymostenol [3]: 0.12± 0.09 |
| O=C(O)Cc1cccc(OCCCN(Cc2cccc(C(F)(F)F)c2Cl)CC(c2ccccc2)c2ccccc2)c1 [GW, GW3965] | 0.07± 0.01 | 0.29± 0.09 | 14.3±1.6 | 2.1±0.4 | 1.9±0.5 | 1.7±0.2 | 1.1±0.1 | 1.1±0.1 | 2.0±0.1 | 1.6±0.2 | 1.0±0.3 | 1.9±0.2 | 3.1±0.2 | 1.2±0.1 | 2.6±0.1 | 1.1±0.2 | 0.9±0.1 | 0.9±0.1 | 1.1±0.2 | 1.1±0.3 | LDLR mRNA ([2]; B16F10, siLXRβ): 1.0±0.2 fold; NOR1 mRNA ([2]; B16F10, siLXRβ): 1.0±0.1 fold; Nur77 mRNA ([2]; B16F10, siLXRβ): 0.9±0.2 fold; SCD1 mRNA ([2]; B16F10, siLXRβ): 1.1±0.1 fold; SREBP1 mRNA ([2]; B16F10, siLXRβ): 1.1±0.2 fold; SULT2b1b mRNA ([2]; B16F10, siLXRβ): 1.0±0.1 fold; Sterol amount/total sterol: 8-DHC [3]: 0.05± 0.005; Sterol amount/total sterol: zymostenol [3]: 0.11 ± 0.08 |
